Reference: ChEMBL document CHEMBL1155489, “Novel 3-O-pegylated carboxylate and 3-O-pegylated carbamate prodrugs of naltrexone for microneedle-enhanced transdermal delivery” (Bioorg Med Chem Lett, 2010)
In brackets after ≈: the same amount, converted by molar mass.

Legend:
[1] = Solubility in 0.3 M acetate buffer at pH 5 relative to naltrexone; type: physicochemical
[2] = Solubility in 0.3 M acetate buffer at pH 5; type: physicochemical

SMILES	Ratio [1]	solubility thermodynamic [2] [mM]
O=C(NCCOCCOCCO)Oc1ccc2c3c1O[C@H]1C(=O)CC[C@@]4(O)[C@@H](C2)N(CC2CC2)CC[C@]314	3.06	1040 (≈ 535 mg/mL)
O=C1CC[C@@]2(O)[C@H]3Cc4ccc(O)c5c4[C@@]2(CCN3CC2CC2)[C@H]1O5 [NALTREXONE]	–	338 (≈ 115 mg/mL)
O=C(CCOCCOCCO)Oc1ccc2c3c1O[C@H]1C(=O)CC[C@@]4(O)[C@@H](C2)N(CC2CC2)CC[C@]314	1.86	629 (≈ 315 mg/mL)
COCCOCCOCCNC(=O)Oc1ccc2c3c1O[C@H]1C(=O)CC[C@@]4(O)[C@@H](C2)N(CC2CC2)CC[C@]314	2.35	796 (≈ 422 mg/mL)
COCCOCCOCCC(=O)Oc1ccc2c3c1O[C@H]1C(=O)CC[C@@]4(O)[C@@H](C2)N(CC2CC2)CC[C@]314	2.81	952 (≈ 491 mg/mL)
